According to patent publication US7572439B2, “Enzyme disruption of bacterial biofilms” (priority 2002, dated 2009):

What was measured:
[1] = test system: biofilms of S. aureus SA113; test: Kinetic effect on established biofilms: absorbance at 650 nm and safranin staining; type: cell-based; settings: for effect on established biofilms (safranin): 400 μg/ml oxacillin or 800 μg/ml vancomycin, PBS or TSB, 24 hours; for absorbance of biofilms at 650 nM: as much as 400 μg/ml oxacillin or 800 μg/ml vancomycin in PBS; for absorbance of biofilms at 650 nM / effect on S. aureus biofilms (FIG. 8 legend): twenty four hours; for effect on absorbance of biofilms: in TSB, 24 hours (data not shown); for effect on S. aureus biofilms (FIG. 8 legend): PBS or bacterial media
Method: Oxacillin and vancomycin have often been used in antibiotic susceptibility studies of S. aureus biofilms. […] Twenty four-hour biofilms in polystyrene 96-well tissue culture plates were treated with serial dilutions of lysostaphin, oxacillin, and vancomycin (FIG. 7).
In order to examine the kinetic effect of lysostaphin, oxacillin and vancomycin on biofilms, the absorbance of established biofilms in a 96-well tissue culture plate was measured over time (0-3 hrs and 24 hrs). Tissue culture wells containing biofilms of S. aureus SA113 were incubated with serial dilutions of lysostaphin ([…]), oxacillin ([…]), or vancomycin ([…]) for 24 hours, and the absorbance at 650 nm was monitored every 20 minutes for the first 3 hours and then again at 24 hours. The absorbance of the lysostaphin-treated biofilms dropped from approximately 0.35 at time zero to 0.125 after 3 hours of treatment and dropped to near base line (0.04) by 24 hrs when treated with a dose of lysostaphin of 6.25 μg/ml in PBS (FIG. 7). […] Since antimicrobials like oxacillin or vancomycin are effective against actively metabolizing bacteria, a similar experiment was conducted but the biofilms were incubated with the three anti-microbials in bacterial media (TSB). Very similar results were also found when the assay was conducted in TSB rather than PBS.
The capacity of the three agents to disrupt S. aureus biofilms in polystyrene wells can be visualized by comparing the staining intensity of treated wells versus control (buffer-treated) wells.

[2] = test system: Methicillin Sensitive S. aureus; test: Treatment of established infection in jugular vein catheterized mice; type: in vivo; settings: Table 4, MSSA, Nafcillin (50) b.i.d. 4 days
Method: Jugular vein catheterized mice (Charles River Labs) were used. The mice were challenged through the tail vein with S. aureus (10^3-10^4CFU, a much lower dose than the 5×10^6 CFU or greater typically necessary to establish an infection in mice not catheterized). Treatment began four days post challenge when infection was established. Lysostaphin was administered through the indwelling catheter in a volume of 200 μ PBS (in the case of methicillin resistant S. aureus, nafcillin was added to the treatment). After the final treatment of the day, 50 μl of a lock solution (50% sterile glucose solution) with lysostaphin (and nafcillin, when used), added at the same concentration as used for treatment, was put in the catheters. Control mice received equal treatments with PBS and lock solution alone.
On the day following the last treatment the liver, heart and a portion of the catheter in the heart were harvested. The catheter portions were sonicated to release bacteria.

SMILES: CN[C@H](CC(C)C)C(=O)N[C@H]1C(=O)N[C@@H](CC(N)=O)C(=O)N[C@H]2C(=O)N[C@H]3C(=O)N[C@H](C(=O)N[C@H](C(=O)O)c4cc(O)cc(O)c4-c4cc3ccc4O)[C@H](O)c3ccc(c(Cl)c3)Oc3cc2cc(c3O[C@@H]2O[C@H](CO)[C@@H](O)[C@H](O)[C@H]2O[C@H]2C[C@](C)(N)[C@H](O)[C@H](C)O2)Oc2ccc(cc2Cl)[C@H]1O [vancomycin]
- effect on established biofilms (safranin) [1]: no obvious effect
- absorbance of biofilms at 650 nM [1]: around 0.325
- effect on absorbance of biofilms [1]: little or no effect
- effect on absorbance of S. aureus biofilms over time (FIG. 7 legend) ([1]; lysostaphin 6.25 μg/ml, vancomycin 800 μg/ml, oxacillin 400 μg/ml): no effect
- effect on S. aureus biofilms (FIG. 8 legend) ([1]; oxacillin 1.6-400 μg/ml, vancomycin 3.2-800 μg/ml): no effect

SMILES: CCOc1ccc2ccccc2c1C(=O)N[C@@H]1C(=O)N2[C@@H]1SC(C)(C)[C@@H]2C(=O)O [Nafcillin, nafcillin, reference compound]
- S. aureus recovered, Heart [2]: 0 CFU

SMILES: Cc1onc(-c2ccccc2)c1C(=O)N[C@@H]1C(=O)N2[C@@H]1SC(C)(C)[C@@H]2C(=O)O [oxacillin]
- effect on established biofilms (safranin) [1]: no obvious effect
- absorbance of biofilms at 650 nM [1]: around 0.325
- effect on absorbance of biofilms [1]: little or no effect
- effect on absorbance of S. aureus biofilms over time (FIG. 7 legend) ([1]; lysostaphin 6.25 cg/ml, vancomycin 800 cg/ml, oxacillin 400 cg/ml): no effect
- effect on S. aureus biofilms (FIG. 8 legend) ([1]; oxacillin 1.6-400 cg/ml, vancomycin 3.2-800 cg/ml): no effect
